Source: patent publication US8410292B2, “Epoxy-guaiane derivatives and treatment of cancer” (The United States of America, as represented by the …, priority 2008, dated 2013)
Read-outs that look alike come from different tables or passages of the source.

Tests used:
SF-295 = assay: 2-day cell growth assay, SF-295; assay type: cell-based, human
Method: (§1) The primary endpoints of these assays are the formazan XTT, or alternatively, and in preference, the protein stain sulforhodamine B. All samples are tested in […] 10-fold dilutions with no drug and no-cell controls on each microtiter plate. IC50 values are calculated using SOFTMAX™ software as supplied by the manufacturer of the microplate reader.

UO-31 [1] = assay: 2-day cell growth assay, UO-31; assay type: cell-based, human
Method: as §1

786-0 = assay: NCI 60-cell line protocol, 786-0; assay type: cell-based, human; conditions: two days exposure, SRB endpoint
Method: (§2) Samples are tested in the standard National Cancer Institute 60-cell line protocol. First, they are tested against all 60 cell lines in a single final concentration of 10 micromolar. Then, they are separately tested in five 10-fold dilutions. The drug exposure is two days, with an SRB endpoint.

A498 = assay: NCI 60-cell line protocol, A498; assay type: cell-based, human; conditions: two days exposure, SRB endpoint
Method: as §2

ACHN = assay: NCI 60-cell line protocol, ACHN; assay type: cell-based, human; conditions: two days exposure, SRB endpoint
Method: as §2

CAKI-1 = assay: NCI 60-cell line protocol, CAKI-1; assay type: cell-based, human; conditions: two days exposure, SRB endpoint
Method: as §2

RXF-393 = assay: NCI 60-cell line protocol, RXF-393; assay type: cell-based, human; conditions: two days exposure, SRB endpoint
Method: as §2

SN12C = assay: NCI 60-cell line protocol, SN12C; assay type: cell-based, human; conditions: two days exposure, SRB endpoint
Method: as §2

TK-10 = assay: NCI 60-cell line protocol, TK-10; assay type: cell-based, human; conditions: two days exposure, SRB endpoint
Method: as §2

UO-31 [2] = assay: NCI 60-cell line protocol, UO-31; assay type: cell-based, human; conditions: two days exposure, SRB endpoint
Method: as §2

renal cancer cell lines = assay: NCI 60-cell line protocol, summary over renal lines; assay type: cell-based, human
Method: as §2

all 60 cell lines = assay: NCI 60-cell line protocol, all 60 lines; assay type: cell-based, human; conditions: mean over all 60 cell lines, read-out: All 60 mean GI-50
Method: as §2

[3] = test system: renal cancer cell line A498; assay: 2-cell assay; assay type: cell-based
Method: A sample ([…]) of englerin B was stirred in pyridine (0.25 mL) and acetic anhydride (0.25 mL) overnight at room temperature. The solvents were evaporated under vacuum and the product extracted in dichloromethane. The crude product was purified on pTLC (Si gel 60 F254; 2% MeOH/DCM) to give englerin B monoacetate (2.0 mg, 95%).

[4] = insensitive CNS tumor line, read-out: SF-295 IC50
[5] = 2-day cell growth assay, sensitive renal line; read-out: UO-31 IC50
[6] = ratio of IC50 SF-295 to IC50 UO-31
[7] = geometric mean over renal cell lines, read-out: Geometric Mean GI50
[8] = mean over renal cell lines, read-out: Mean GI50
[9] = median over renal cell lines, read-out: Median GI50
[10] = Homo sapiens, SF-295, 48 h, insensitive CNS tumor line, read-out: SF-295 IC50
[11] = Homo sapiens, UO-31, 48 h, 2-day cell growth assay, sensitive renal line; read-out: UO-31 IC50

## CC(C)[C@@]12C[C@@H](OC(=O)CO)[C@@](C)(O1)[C@@H]1CC[C@@H](C)[C@H]1[C@@H]2OC(=O)/C(Cl)=C/c1ccccc1 [2′-Chloroenglerin A]
SF-295; [4]
  IC50: 72000 nM
UO-31 [1]; [5]
  IC50: 920 nM
UO-31 [1]; [6]
  Selectivity SF-295/UO-31: 78
786-0
  GI50: 10000 nM
A498
  GI50: 28 nM
ACHN
  GI50: 41 nM
CAKI-1
  GI50: 35 nM
RXF-393
  GI50: 19 nM
SN12C
  GI50: 560 nM
TK-10
  GI50: 21000 nM
UO-31 [2]
  GI50: 35 nM
Renal cancer cell lines; [7]
  GI50: 210 nM
Renal cancer cell lines; [8]
  GI50: 3960 nM
Renal cancer cell lines; [9]
  GI50: 40 nM
All 60 cell lines
  GI50: 5600 nM

## CC1CCC2C1C(OC(=O)C(Cl)C(Cl)c1ccccc1)C1(C(C)C)CC(OC(=O)CO)C2(C)O1 (single isomer, unassigned) [2′,3′-Dichlorodihydroenglerin A (epimer 1)]
SF-295; [10]
  IC50: 90000 nM
UO-31 [1]; [11]
  IC50: 1200 nM
UO-31 [1]; [6]
  Selectivity SF-295/UO-31: 75
786-0; Homo sapiens, 786-0, 48 h
  GI50: 12000 nM
A498
  GI50: 140 nM
ACHN
  GI50: 140 nM
CAKI-1; Homo sapiens, CAKI-1, 48 h
  GI50: 420 nM
RXF-393
  GI50: 930 nM
SN12C; Homo sapiens, SN12C, 48 h
  GI50: 1000 nM
TK-10; Homo sapiens, TK-10, 48 h
  GI50: 18000 nM
UO-31 [2]; Homo sapiens, UO-31, 48 h
  GI50: 390 nM
Renal cancer cell lines; Homo sapiens, 60 cell, geometric mean over renal cell lines, read-out: Geometric Mean GI50
  GI50: 940 nM
Renal cancer cell lines; Homo sapiens, 60 cell, mean over renal cell lines, read-out: Mean GI50
  GI50: 4090 nM
Renal cancer cell lines; [9]
  GI50: 680 nM
All 60 cell lines; Homo sapiens, 60 cell
  GI50: 8300 nM

## CC1CCC2C1C(OC(=O)C(Cl)C(O)c1ccccc1)C1(C(C)C)CC(OC(=O)CO)C2(C)O1 (single isomer, unassigned) [2′-Chloro,3′-hydroxydihydroenglerin (epimer 3), 2′-Chloro,3′-hydroxydihydroenglerin A (epimer 3)]
SF-295; [4]
  IC50: 42000 nM
UO-31 [1]; [5]
  IC50: 410 nM
UO-31 [1]; [6]
  Selectivity SF-295/UO-31: 102

## CC1CCC2C1C(OC(=O)C(Cl)C(Cl)c1ccccc1)C1(C(C)C)CC(OC(=O)CO)C2(C)O1 (single isomer, unassigned) [2′,3′-Dichlorodihydroenglerin A (epimer 2)]
SF-295; [4]
  IC50: 60000 nM
UO-31 [1]; [5]
  IC50: 750 nM
UO-31 [1]; [6]
  Selectivity SF-295/UO-31: 80
786-0
  GI50: 12000 nM
A498
  GI50: 49 nM
ACHN
  GI50: 320 nM
CAKI-1
  GI50: 320 nM
RXF-393
  GI50: 320 nM
SN12C
  GI50: 1000 nM
TK-10
  GI50: 25000 nM
Renal cancer cell lines; [7]
  GI50: 720 nM
Renal cancer cell lines; [8]
  GI50: 5550 nM
Renal cancer cell lines; [9]
  GI50: 320 nM
All 60 cell lines
  GI50: 11700 nM

## CC1CCC2C1C(OC(=O)C(Cl)C(O)c1ccccc1)C1(C(C)C)CC(OC(=O)CO)C2(C)O1 (single isomer, unassigned) [2′-Chloro,3′-hydroxydihydroenglerin (epimer 4), 2′-Chloro,3′-hydroxydihydroenglerin A (epimer 4)]
SF-295; [4]
  IC50: 20000 nM
UO-31 [1]; [5]
  IC50: 16000 nM
UO-31 [1]; [6]
  Selectivity SF-295/UO-31: 1.25

## englerin B monoacetate
[3]
  selectivity against renal cancer cell line A498: ~400 fold

## CC1CCC2C1C(OC(=O)C(Cl)C(O)c1ccccc1)C1(C(C)C)CC(OC(=O)CO)C2(C)O1 (single isomer, unassigned) [2′-Chloro,3′-hydroxydihydroenglerin (epimer 2), 2′-Chloro,3′-hydroxydihydroenglerin A (epimer 2)]
SF-295; [4]
  IC50: 92000 nM
UO-31 [1]; [5]
  IC50: 8700 nM
UO-31 [1]; [6]
  Selectivity SF-295/UO-31: 11
786-0
  GI50: 11000 nM
A498
  GI50: 660 nM
ACHN
  GI50: 1380 nM
CAKI-1
  GI50: 9300 nM
RXF-393
  GI50: 390 nM
SN12C
  GI50: 4700 nM
TK-10
  GI50: 27000 nM
UO-31 [2]
  GI50: 1900 nM
Renal cancer cell lines; [7]
  GI50: 3130 nM
Renal cancer cell lines; [8]
  GI50: 7070 nM
Renal cancer cell lines; [9]
  GI50: 3320 nM
All 60 cell lines
  GI50: 12000 nM

## CCOC(c1ccccc1)C(Cl)C(=O)OC1C2C(C)CCC2C2(C)OC1(C(C)C)CC2OC(=O)CO (stereo not drawn) [2′-Chloro,3′-ethoxydihydroenglerin A]
SF-295; [10]
  IC50: 35000 nM
UO-31 [1]; [11]
  IC50: 18000 nM
UO-31 [1]; [6]
  Selectivity SF-295/UO-31: 1.94

## CC1CCC2C1C(OC(=O)C(Cl)C(O)c1ccccc1)C1(C(C)C)CC(OC(=O)CO)C2(C)O1 (single isomer, unassigned) [2′-Chloro,3′-hydroxydihydroenglerin (epimer 1), 2′-Chloro,3′-hydroxydihydroenglerin A (epimer 1)]
SF-295; read-out: SF-295 IC50, insensitive CNS tumor line
  IC50: > 100000 nM
UO-31 [1]; [6]
  Selectivity SF-295/UO-31: >104
UO-31 [1]; read-out: UO-31 IC50; 2-day cell growth assay, sensitive renal line
  IC50: 960 nM
786-0
  GI50: 1700 nM
A498
  GI50: 180 nM
ACHN
  GI50: 320 nM
CAKI-1
  GI50: 460 nM
RXF-393; Homo sapiens, RXF 393, 48 h
  GI50: 510 nM
SN12C
  GI50: 630 nM
TK-10; Homo sapiens, TK-10, 48 h
  GI50: 17000 nM
UO-31 [2]
  GI50: 250 nM
Renal cancer cell lines; [7]
  GI50: 700 nM
Renal cancer cell lines; [8]
  GI50: 2580 nM
Renal cancer cell lines; [9]
  GI50: 490 nM
All 60 cell lines; Homo sapiens, 60 cell
  GI50: 6900 nM
